In PubChem BioAssay AID2401 (Southern Research Specialized Biocontainment Screening …, 2010):

System: S. Typhimurium GFP reporter counter-screen, fluorescence, 4 h
Assay: nmpC-GFP reporter counter-screen in S. Typhimurium, dose response, counter-screen for PhoP regulon inhibitor project, Salmonella Typhimurium, GFP fluorescence (AID 2401);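 note: S. typhimurium with Mg-insensitive nmpC-GFP reporter grown at 10 µM Mg2+; drop in reporter fluorescence reflects general culture growth inhibition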

| Structure (SMILES) | IC50 [µM] |
| --- | --- |
| COc1cc([N+](=O)[O-])cc(/C=N\NC(=O)C2COc3ccccc3O2)c1O (stereo unspecified) | 85.3 |
| O=C1C(SCCO)=C(SCCO)C(=O)c2ccccc21 | 68 |
| CCn1cc(C(=O)O)c(=O)c2cnc(N3CCNCC3)nc21 | 68.4 |
| CCCCOc1ccc(Cc2cnc(N)nc2N)cc1 | 38.2 |
| c1ccc2c(c1)Sc1ccccc1N2CC1CN2CCC1CC2 (stereo unspecified) | 108 |
| O=C(N/N=C\C=C\c1ccc([N+](=O)[O-])o1)c1cccs1 | 20.9 |
| O=C1OCC(CO)(CO)N=C1NNc1ccc(Cl)c(Cl)c1 | 109 |
| COc1cccc(C2Nc3ccccc3C(=O)N2O)c1O (stereo unspecified) | 138 |
| NC(N)=N/N=C/c1ccc(OCc2ccc(Cl)cc2)cc1 | 35.7 |
| COc1ccc(C(=O)Cn2nc(CNc3ccc(Br)cc3)[n+]3c2CCCCC3)cc1 | 80.8 |
| CS(=O)(=O)c1ccc([C@@H](O)[C@@H](CF)NC(=O)C(Cl)Cl)cc1 | 16.6 |
| CCCCCOc1ccc(Br)cc1CSC(=N)N | 61.1 |
| COC1C(OC(=O)c2ccc(C)[nH]2)C(O)C(Oc2ccc3c(O)c(NC(=O)c4ccc(O)c(CC=C(C)C)c4)c(=O)oc3c2Cl)OC1(C)C (stereo unspecified) | 16.5 |
| Cc1ccc(C(=O)Sc2cccccc2=O)cc1 | 9.74 |
| N=C(N)SCc1cn(-c2ccccc2)nc1-c1ccc(Br)cc1 | 20.3 |
| Cc1cc(/C=N/n2c(COc3ccccc3C)nc3ccccc3c2=O)c(O)c([N+](=O)[O-])c1 | 70.4 |
| Cc1nnc(N/N=C/c2ccccn2)[nH]c1=O | 18 |
| O=C(O)CSc1cc(NS(=O)(=O)c2cccc([N+](=O)[O-])c2)c2ccccc2c1O | 83.5 |
| O=c1[nH]cc(F)c(=O)[nH]1 | 20.5 |
| O=C(N/N=C/c1cc2c3c(c1O)CCCN3CCC2)c1ccccc1O | 95.3 |
| Cc1cccc(Nc2c3c(nc4ccccc24)CCC3)c1 | 109 |
| O=C(N/N=C/c1ccc(O)cc1O)/C(=C/c1ccccc1)CCO | 124 |
| CCCCCCCCCCOC(=O)Cn1c(COc2ccccc2OC)[n+](C)c2ccccc21 | 21.4 |

| Structure (SMILES) | IC50 [µM] |
| --- | --- |
| O=C(Nc1ccccc1)Nc1ccc(Cl)c([N+](=O)[O-])c1 | 42.4 |
| CC[C@H]1OC(=O)[C@H](C)[C@@H](O[C@H]2C[C@@](C)(OC)[C@@H](O)[C@H](C)O2)[C@H](C)[C@@H](O[C@@H]2O[C@H](C)C[C@H](N(C)C)[C@H]2O)[C@](C)(O)C[C@@H](C)[C@@H]2N[C@@H](COCCOC)O[C@H]([C@H]2C)[C@]1(C)O | 25.1 |
| CCn1c(N)[n+](CC(=O)Nc2ccc(SC(F)F)cc2)c2ccccc21 | 132 |
| CCCc1cnc(NCCNCC(O)COc2ccc(Cl)c(Cl)c2)nc1 (stereo unspecified) | 40.3 |
| O=C(Cc1c[nH]c2ccccc12)N/N=C/c1ccccc1O | 89.3 |
| OCCN1CCN(Cc2cc(Cl)c3cccnc3c2O)CC1 | 75.2 |
| CCCCCc1ccc(OCCOCCn2c[n+](C)c3ccccc32)c(CCCCC)c1 | 63.2 |
| Cc1cccc(Nc2cc(C)c3c(O)cccc3n2)c1C | 38.8 |
| CC(C)C(=O)NC(c1cccc([N+](=O)[O-])c1)c1ccc2cccnc2c1O (stereo unspecified) | 51.7 |
| C/C(=N\Nc1ncnc2sc(C)c(C)c12)c1ccccn1 | 26.4 |
| CN(O)/C=c1/ccc2c(n1)C(=O)C=CC=2 | 35 |
| CCn1nc(C(=O)O)c(=O)c2cc3c(cc21)OCO3 | 49 |
| Oc1cccc(C=NCc2ccccc2)c1O | 144 |
| O=C(CSc1nc2ccccc2s1)N/N=C/c1cc([N+](=O)[O-])ccc1O | 88.4 |
| Cc1ccc(Cn2c(=N)n(CC(=O)c3ccc([N+](=O)[O-])cc3)c3ccccc32)cc1 | 103 |
| CCOc1ccc(Nc2c3ccccc3nc3ccccc23)cc1 | 77.3 |
| C/C(=N\Nc1nc2ccccc2[nH]1)c1ccccn1 | 22.5 |
| CCCC(=O)NC(c1ccc(Cl)cc1)c1ccc2cccnc2c1O (stereo unspecified) | 108 |
| Nc1[nH]c(=O)ncc1F | 92.7 |
| CN(C)S(=O)(=O)c1cccc(NC(=S)N/N=C/c2cc(Br)ccc2O)c1 | 32.4 |
| CC(C(=O)NC1C=CS(=O)(=O)C1)N1C(=O)/C(=C/c2ccc(Cl)cc2)SC1=S (stereo unspecified) | 15.4 |
| Oc1cc(Cl)ccc1Oc1ccc(Cl)cc1Cl | 0.49 |
| CCCCCNCC(=O)Nc1cccc(C(=O)Nc2cccc(C(F)(F)F)c2)c1 | 83.2 |

| Structure (SMILES) | IC50 [µM] |
| --- | --- |
| C/C(=C\C(=O)OCCCCCCCCC(=O)O)C[C@@H]1OC[C@H](C[C@@H]2O[C@H]2[C@@H](C)[C@H](C)O)[C@@H](O)[C@H]1O | 9.67 |
| O=C(N/N=C/c1cc(Cl)ccc1O)c1cccnc1 | 25.6 |
| Cc1nn(-c2ccccc2)c(N2CCCC2)c1/C=N/Nc1ccc(S(N)(=O)=O)cc1[N+](=O)[O-] | 88.7 |
| Cc1ccc(/C=C/C(=O)c2ccccc(=O)c2O)cc1C | 25 |
| c1ccc(-c2cccc(-c3ccccn3)n2)nc1 | 21.2 |
| CN1CCN(C(c2ccc(Cl)cc2)c2cc(Cl)c3cccnc3c2O)CC1 (stereo unspecified) | 33.5 |
| CCn1cc(C(=O)O)c(=O)c2cc(F)c(N3CCN(C(=S)NC(=O)c4ccc(OC)cc4)CC3)cc21 | 29.4 |
| CCCCCCCCn1c2c(c(=N)c3c1CCC3)CCCC2 | 70.9 |
| c1ccc(-c2nnc(-c3ccccn3)nc2NC2CCCCC2)cc1 | 78.3 |
| CC1CCc2c(N3CCC(O)CC3)c(F)cc3c(=O)c(C(=O)O)cn1c23 (stereo unspecified) | 15.3 |
| CN1CCN(c2c(F)cc3c(=O)c(C(=O)O)cn4c3c2OCN4C)CC1 | 0.61 |
| NC1=NC2(CCCCC2)N=C(Nc2ccc(Br)cc2)N1 | 119 |
| COc1ccc(CNC[C@@H](CCCCN(C)Cc2ccc(OC)cc2)N2C[C@H](c3ccccc3)N(CCc3ccc(Cl)c(Cl)c3)C(=O)C2=O)cc1 | 45.7 |
| C/C(=N\NC(=O)c1cc2ccccc2cc1O)c1ccccn1 | 17 |
| O=Nc1ccc(O)c2ncccc12 | 61.3 |
| Cc1ccc(C(c2cc(Cl)c3cccnc3c2O)N2CCN(C)CC2)cc1 (stereo unspecified) | 33.5 |
| COc1c(N2CCN(C(=S)Nc3ccccc3F)C(C)C2)c(F)cc2c(=O)c(C(=O)O)cn(C3CC3)c12 (stereo unspecified) | 15.3 |
| COc1ccc(-c2ccc3c(N)c(C(=O)c4cccc(OC)c4)sc3n2)cc1 | 83.2 |
| Cc1[nH]c2ccccc2c1C(=O)COC(=O)c1ccc([N+](=O)[O-])s1 | 130 |
| O=C(N/N=C/c1cc(O)ccc1Br)c1cccnc1 | 25.4 |
| CN(Cc1ccccc1)CC(O)COc1ccc(CNCc2ccc(Cl)s2)cc1 (stereo unspecified) | 91.9 |
| ON=C1/C(=N\O)CC2(C/C1=N/O)OCCO2 | 98.3 |
| Clc1ccc(-c2c[n+](Cc3ccc(Cl)cc3Cl)c3n2CCCCC3)cc1 | 98.8 |

| Structure (SMILES) | IC50 [µM] |
| --- | --- |
| CC1COc2c(N3CCN(C)CC3)c(F)cc3c(=O)c(C(=O)O)cn1c23 (stereo unspecified) | 0.8 |
| O=[N+]([O-])c1ccc(O)c(/C=N/Nc2ccccn2)c1 | 13.9 |
| COC(=O)c1c(NC(=O)c2ccc([N+](=O)[O-])o2)sc2c1CCN(C(C)C)C2 | 69.3 |
| Oc1c(C(Nc2ccccn2)c2ccccn2)ccc2cccnc12 (stereo unspecified) | 40.2 |
| CC1CCc2cc(F)cc3c(=O)c(C(=O)O)cn1c23 (stereo unspecified) | 20.9 |
| C1=C(CCNCc2ccccc2)CCCC1 | 7.93 |
| Cc1cc(C(=O)N/N=C/c2ccc([N+](=O)[O-])s2)n[nH]1 | 35 |
| CCCCCCCCCC[n+]1cccc2c3ccccc3ccc21 | 23.4 |
| Nc1nc(N)c(Cc2ccc(Cl)cc2Cl)c(N)n1 | 100 |
| OCc1ccc(O)c2ncccc12 | 123 |
| CCC(C)NC(=O)c1cn(CC)c2cc(N3CCN(C)CC3)c(F)cc2c1=O (stereo unspecified) | 70.6 |
| Oc1c(CN2CCCCC2)cc(COCc2ccccc2)c2cccnc12 | 80.5 |
| CC(C)Oc1ccc(Cc2cnc(N)nc2N)cc1 | 34 |
| CCCCCCCCCCOC(=O)Cn1c(COc2ccccc2)[n+](C)c2ccccc21 | 19.2 |
| CCCc1nnc(NC(=O)c2cn(CC)c3cc(N4CCN(C)CC4)c(F)cc3c2=O)s1 | 117 |
| CCn1cc(C(=O)NCC(C)C)c(=O)c2cc(F)c(N3CCN(C)CC3)cc21 | 67.8 |
| Cc1cc(C)n(-c2nc(NCCN(C)C)c3c4c(sc3n2)CCCC4)n1 | 92.1 |
| Nc1nc2ccccc2n1Cc1ccc(Cl)c(Cl)c1 | 76.5 |
| Fc1ccccc1CCNCc1ccccc1 | 36.2 |
| O=C(N[C@H](CO)[C@H](O)c1ccc([N+](=O)[O-])cc1)C(Cl)Cl | 9.59 |
| C/C(CC(=O)Nc1ccc(Cl)c(C(F)(F)F)c1)=N\NC(=O)c1cc2ccccc2cc1O | 80.6 |
| Nc1cc2nsnc2cc1Br | 77.3 |
| CC[C@H]1OC(=O)C[C@@H](O)[C@H](C)[C@@H](O[C@@H]2O[C@H](C)C[C@H](N(C)C)[C@H]2O)[C@@H](CC=O)C[C@@H](C)C(=O)C=C[C@]2(C)O[C@H]2[C@@H]1C | 14.2 |

| Structure (SMILES) | IC50 [µM] |
| --- | --- |
| COc1c(F)c(F)cc2c(=O)c(C(=O)O)cn(C3CC3)c12 | 85.6 |
| CCCCCCCCCCCCCCCCn1cc[n+](C)c1 | 16.3 |
| Cc1ccc(C(=O)O)cc1N=Cc1cc(Br)cc(Br)c1O | 85.6 |
| O=C(N/N=C/c1ccc([N+](=O)[O-])o1)c1ccc(O)cc1 | 36.8 |
| CCCCCCCCCCOC(=O)C[N+](C)(C)C/C=C(/C)Cl | 44.9 |
| COc1ccc(C(=O)N/N=C/c2sc3ccccc3c2O)cc1 | 41.5 |
| OC(CNCCc1ccccc1)COc1ccc(OCC(O)CNCCc2ccccc2)cc1 (stereo unspecified) | 63.7 |
| Cc1cc(C)c(NC(=O)c2cn3c4c(c(N5CCN(C)CC5)c(F)cc4c2=O)OCC3C)c(C)c1 (stereo unspecified) | 34.2 |
| Nc1c(Cl)ncnc1N/N=C/c1ccccn1 | 25.5 |
| C=CC1=C(C(=O)O)N2C(=O)[C@@H](NC(=O)/C(=N/OCC(=O)O)c3csc(N)n3)[C@H]2SC1 | 30.3 |
| COc1c(N2CCN(C(=S)Nc3ccc(F)cc3)C(C)C2)c(F)cc2c(=O)c(C(=O)O)cn(C3CC3)c12 (stereo unspecified) | 15.7 |
| O=C(Cn1nc(CNc2ccc(Cl)cc2)[n+]2c1CCCCC2)c1ccc(Br)cc1 | 72.1 |
| Cc1cc(C(=O)N/N=C/c2cc(Br)cc([N+](=O)[O-])c2O)c2ccccc2n1 | 109 |
| C[C@H]1COc2c(N3CCN(C)CC3)c(F)cc3c(=O)c(C(=O)O)cn1c23 | 0.37 |
| C/C(=N\N=C(N)N)c1ccc(Cl)c(Cl)c1 | 94.2 |
| Oc1ccc(/C=N/Nc2ncc(Br)cn2)c(O)c1 | 71.1 |
| CCCC(=O)NC(c1cccs1)c1cc([N+](=O)[O-])c2cccnc2c1O (stereo unspecified) | 25.8 |
| Oc1cccc(/C=N/Nc2ccc(Cl)nn2)c1O | 18.3 |
| C#CCOCCOCCOCCNc1nc(N2CCN(C(=O)CCCCCCCCCCNC(=O)[C@H](CCCCN)n3cc(C[C@@H](C)CC)nn3)CC2)nc(N2CCN(C(=O)CCCCCCCCCCNC(=O)[C@H](CCCN=C(N)N)n3cc(C[C@@H](C)CC)nn3)CC2)n1 | 78 |
